Test results reported in patent US8258154B2, “Bicyclic heteroaryl inhibitors of PDE4” (Kalypsys Inc., priority 2006, dated 2012).

Test system: Lacrimal gland inflammation-induced dry eye
Assay: Lacrimal gland inflammation-induced dry eye in rabbits (corneal staining, tear breakup time)
Assay type: in vivo
Conditions: rabbit, topical ocular BID, percent concentration 1
Description: A more detailed description of the assay used herein may be found in Naglehout, T J et al. 2005, “Preservation of Tear Film Integrity and Inhibition of Corneal Injury by Dexamethasone in a Rabbit Model of Lacrimal Gland Inflammation-Induced Dry Eye,” J. Ocular Pharm. Ther., 21:2. 139-148, the disclosure of which is hereby incorporated by reference as if written herein in its entirety. Rabbits (n=4/group) were randomized into treatment groups and dosed topically BID with maxidex vehicle or test drug beginning one day prior to initiation of dry eye. Each rabbit received bilateral lacrimal gland injections of saline or ConA (300 μg/30 μl) and topical ocular dosing was continued BID throughout the study. Desiccation was initiated 1-2 hours following lacrimal gland injection by placing conscious rabbits in the environmental chamber (10-15% humidity/72° F.). […] Absorbance of the extracted dye was determined at 660 nm. TBUT was quantified in a separate group of treated animals. TBUT was determined by instilling 5 μL sodium fluorescein into the cul de sac and manually blinking the lids to distribute the fluorescein within the tear film. Under slit lamp observation, the eye was held open and the time whereby one or more black spots or streaks appeared in the precorneal tear film was recorded. […]

For `COc1ccc2c(Nc3c(Cl)cncc3Cl)cc(=O)[nH]c2c1OC1CCCC1` [Example 1, 8-(Cyclopentyloxy)-4-(3,5-dichloropyridin-4-ylamino)-7-methoxyquinolin-2(1H)-one], the “Activity at Percent Concentration Tested 1” value was “Inac-”.
